Data from the Kinase Knowledgebase extract (Sharma et al. 2016).
Values after ≈ are worked out from the molar mass of the structure shown.

What was measured:
EGFR (human) = EGFR (human) (UniProt P00533); settings: a431
EGFR = EGFR (UniProt P00533)
EGFR, sequence (P00533 whole entry, looked up): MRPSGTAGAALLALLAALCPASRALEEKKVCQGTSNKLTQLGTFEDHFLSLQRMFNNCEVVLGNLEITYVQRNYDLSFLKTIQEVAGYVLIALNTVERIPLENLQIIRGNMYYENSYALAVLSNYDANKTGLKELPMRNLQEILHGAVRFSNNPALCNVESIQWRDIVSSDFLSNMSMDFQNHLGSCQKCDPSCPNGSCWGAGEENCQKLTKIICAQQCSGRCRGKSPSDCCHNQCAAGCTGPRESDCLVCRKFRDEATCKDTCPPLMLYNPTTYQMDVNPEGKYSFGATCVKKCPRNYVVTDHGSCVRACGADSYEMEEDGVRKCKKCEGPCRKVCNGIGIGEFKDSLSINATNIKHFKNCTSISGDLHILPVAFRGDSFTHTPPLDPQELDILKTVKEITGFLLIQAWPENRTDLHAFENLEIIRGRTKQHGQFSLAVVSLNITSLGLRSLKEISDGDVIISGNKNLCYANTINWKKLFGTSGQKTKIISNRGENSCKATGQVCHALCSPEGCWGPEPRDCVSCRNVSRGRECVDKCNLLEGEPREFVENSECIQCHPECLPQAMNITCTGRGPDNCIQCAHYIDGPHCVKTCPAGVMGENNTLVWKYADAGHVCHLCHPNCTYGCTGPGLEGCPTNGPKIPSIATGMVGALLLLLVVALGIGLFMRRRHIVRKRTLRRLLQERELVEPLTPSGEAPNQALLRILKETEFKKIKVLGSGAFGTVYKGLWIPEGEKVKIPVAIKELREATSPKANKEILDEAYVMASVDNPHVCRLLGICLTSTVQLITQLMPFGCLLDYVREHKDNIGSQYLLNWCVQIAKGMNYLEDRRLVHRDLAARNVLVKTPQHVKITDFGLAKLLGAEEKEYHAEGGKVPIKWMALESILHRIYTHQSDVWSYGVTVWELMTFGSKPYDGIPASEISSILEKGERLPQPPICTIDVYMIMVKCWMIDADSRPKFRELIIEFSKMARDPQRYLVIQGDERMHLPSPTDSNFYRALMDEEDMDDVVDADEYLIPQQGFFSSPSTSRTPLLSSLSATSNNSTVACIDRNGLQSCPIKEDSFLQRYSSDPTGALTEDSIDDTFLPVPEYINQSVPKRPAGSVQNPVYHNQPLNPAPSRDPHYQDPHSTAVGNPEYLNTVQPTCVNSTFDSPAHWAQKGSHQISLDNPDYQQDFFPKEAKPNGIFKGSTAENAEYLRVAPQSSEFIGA

EGFR (human), sequence (P00533 whole entry, looked up): as above

SMILES | IC50 (EGFR (human)) | IC50 (EGFR)
CCOc1cc2ncc(C#N)c(Nc3ccc(OCc4cccc(F)c4)c(Cl)c3)c2cc1NC(=O)/C=C/CN(C)C | – | 0.019 µg/mL (≈ 0.0331 µM)
CCOc1cc2ncc(C#N)c(Nc3ccc4c(c3)CCC4)c2cc1OCC | 0.342 µg/mL (≈ 0.916 µM) | –
CCOc1cc2ncc(C#N)c(Nc3ccc4c(c3)OCCO4)c2cc1OCC | 0.27 µg/mL (≈ 0.69 µM) | –
CCOc1cc2ncc(C#N)c(Nc3ccc(Nc4nnc(C(F)(F)F)s4)c(Cl)c3)c2cc1N | > 5 µg/mL | –
C=CC(=O)Nc1ccc2ncc(C#N)c(Nc3ccc(Sc4nccn4C)c(Cl)c3)c2c1 | 0.62 µg/mL (≈ 1.35 µM) | –
CCOc1cc2ncc(C#N)c(Nc3ccc4cn[nH]c4c3)c2cc1OC | 0.0368 µg/mL (≈ 0.102 µM) | –
COc1cc2ncc(C#N)c(Nc3ccc(N(c4ccc(N(Cc5cccnc5)C(C)=O)c(Cl)c4)c4c(OC)cnc5ccccc45)c(Cl)c3)c2cc1N | > 5 µg/mL | –
CCOc1cc2ncc(C#N)c(Nc3cc(Cl)c(Nc4nncs4)c(C(F)(F)F)c3)c2cc1NC(=O)/C=C/CN(C)C | 0.728 µg/mL (≈ 1.18 µM) | –
CCOc1cc2ncc(C#N)c(Nc3ccc(Cn4ccnc4)c(Cl)c3)c2cc1NC(=O)/C=C/CN(C)C | 0.95 µg/mL (≈ 1.79 µM) | –
CCOc1cc2ncc(C#N)c(Nc3ccc4c(c3)CCC4=O)c2cc1OCC | 0.0181 µg/mL (≈ 0.0467 µM) | –
COc1cc2ncc(C#N)c(Nc3ccc(N(Cc4cccnc4)C(C)=O)c(Cl)c3)c2cc1NC(=O)/C=C/CN(C)C | 0.646 µg/mL (≈ 1.11 µM) | –
CCOc1cc2ncc(C#N)c(Nc3ccc(Sc4nc(-c5ccccc5)cs4)c(C(F)(F)F)c3)c2cc1N | > 5 µg/mL | –
COc1cc2ncc(C#N)c(Nc3ccc(Sc4nc5ccccc5c(=O)[nH]4)c(Cl)c3)c2cc1NC(=O)/C=C/CN(C)C | 0.34 µg/mL (≈ 0.555 µM) | –
COc1cc2ncc(C#N)c(Nc3ccc(-n4ccnc4)c(Cl)c3)c2cc1NC(=O)/C=C/CN(C)C | 0.51 µg/mL (≈ 1.02 µM) | –
COc1ccc2c(N(c3ccc(N(Cc4cccnc4)C(C)=O)c(Cl)c3)c3ccc(Nc4c(C#N)cnc5cc(OC)c(NC(C)=O)cc45)cc3Cl)c(C#N)cnc2c1 | 3.68 µg/mL (≈ 4.47 µM) | –
CCOc1cc2ncc(C#N)c(Nc3ccc(OCc4ccccc4)c(Cl)c3)c2cc1NC(=O)/C=C/CN(C)C | 0.062 µg/mL (≈ 0.111 µM) | 0.028 µg/mL (≈ 0.0504 µM)
COCCOc1cc2ncc(C#N)c(Nc3ccc4cn[nH]c4c3)c2cc1OCCOC | 1.96 µg/mL (≈ 4.52 µM) | –
COCCN(C)C/C=C/C(=O)Nc1cc2c(Nc3ccc(Sc4nccs4)c(Cl)c3)c(C#N)cnc2cc1OC | 0.03 µg/mL (≈ 0.0504 µM) | –
COc1cc2ncc(C#N)c(Nc3ccc4cn[nH]c4c3)c2cc1OCCCN1CCOCC1 | > 5 µg/mL | –
COc1cc2c(Nc3ccc(Sc4nccn4C)c(Cl)c3)c(C#N)cnc2cc1OCCCN1CCOCC1 | 0.775 µg/mL (≈ 1.37 µM) | –
COc1cc2ncc(C#N)c(Nc3ccc(Sc4nc(-c5ccccc5)cs4)c(Cl)c3)c2cc1NC(=O)/C=C/CN(C)C | 0.162 µg/mL (≈ 0.258 µM) | –

More lines, now with the values ahead:

IC50 (EGFR (human)) | IC50 (EGFR) | SMILES
3.04 µg/mL (≈ 6.96 µM) | – | COc1cc2ncc(C#N)c(Nc3ccc(Sc4nccn4C)c(Cl)c3)c2cc1N
1.79 µg/mL (≈ 3.34 µM) | – | CCOc1cc2ncc(C#N)c(Nc3cc(Cl)c(Nc4nncs4)c(C(F)(F)F)c3)c2cc1[N+](=O)[O-]
0.76 µg/mL (≈ 1.28 µM) | – | CCOc1cc2ncc(C#N)c(Nc3ccc(Sc4nc(-c5ccccc5)cs4)c(C(F)(F)F)c3)c2cc1[N+](=O)[O-]
1.2 µg/mL (≈ 2.43 µM) | – | CCOc1cc2ncc(C#N)c(Nc3ccc(Sc4nccc(C)n4)c(Cl)c3)c2cc1[N+](=O)[O-]
1.53 µg/mL (≈ 3.3 µM) | – | CCOc1cc2ncc(C#N)c(Nc3ccc(Sc4nccc(C)n4)c(Cl)c3)c2cc1N
0.123 µg/mL (≈ 0.33 µM) | – | CCOc1cc2ncc(C#N)c(Nc3ccc4cc[nH]c4c3)c2cc1OCC
0.257 µg/mL (≈ 0.61 µM) | – | CCOc1cc2ncc(C#N)c(Nc3ccc4c(c3)S(=O)(=O)C=C4)c2cc1OCC
1.83 µg/mL (≈ 3.35 µM) | – | COc1cc2c(Nc3ccc(Sc4nccn4C)c(Cl)c3)c(C#N)cnc2cc1OCCCn1ccnn1
0.76 µg/mL (≈ 1.59 µM) | – | CCOc1cc2ncc(C#N)c(Nc3ccc(Sc4nc(C)cc(C)n4)c(Cl)c3)c2cc1N
> 5 µg/mL | – | CCOc1cc2ncc(C#N)c(Nc3ccc(Sc4nc(C)cc(C)n4)c(Cl)c3)c2cc1[N+](=O)[O-]
1.79 µg/mL (≈ 4.25 µM) | – | COc1cc2ncc(C#N)c(Nc3ccc(-n4ccnc4)c(Cl)c3)c2cc1[N+](=O)[O-]
0.148 µg/mL (≈ 0.315 µM) | – | COc1cc2ncc(C#N)c(Nc3ccc(Sc4nccs4)c(Cl)c3)c2cc1[N+](=O)[O-]
> 5 µg/mL | – | CCOc1cc2ncc(C#N)c(Nc3ccc(Oc4ccncc4)c(Cl)c3)c2cc1N
1.6 µg/mL (≈ 3.47 µM) | – | COc1cc2ncc(C#N)c(Nc3ccc(NCc4cccnc4)c(Cl)c3)c2cc1[N+](=O)[O-]
2.88 µg/mL (≈ 6.17 µM) | – | COc1cc2ncc(C#N)c(Nc3ccc(Sc4nccn4C)c(Cl)c3)c2cc1[N+](=O)[O-]
0.663 µg/mL (≈ 1.51 µM) | – | COc1cc2ncc(C#N)c(Nc3ccc(Sc4nccs4)c(Cl)c3)c2cc1N
> 5 µg/mL | – | CCOc1cc2ncc(C#N)c(Nc3ccc(Oc4ccncc4)c(Cl)c3)c2cc1[N+](=O)[O-]
0.24 µg/mL (≈ 0.408 µM) | – | CCOc1cc2ncc(C#N)c(Nc3ccc(Sc4nc(C)cc(C)n4)c(Cl)c3)c2cc1NC(=O)/C=C/CN(C)C
2.28 µg/mL (≈ 3.95 µM) | – | COc1cc2nc(Sc3ccc(Nc4c(C#N)cnc5cc(OC)c([N+](=O)[O-])cc45)cc3Cl)[nH]c(=O)c2cc1O
0.786 µg/mL (≈ 2.19 µM) | – | CCOc1cc2c(Nc3ccc4cn[nH]c4c3)c(C#N)cnc2cc1OC
0.017 µg/mL (≈ 0.0308 µM) | – | COc1cc2ncc(C#N)c(Nc3ccc(Sc4nccs4)c(Cl)c3)c2cc1NC(=O)/C=C/CN(C)C
1.22 µg/mL (≈ 2.44 µM) | – | COc1cc2ncc(C#N)c(Nc3ccc(Sc4nc5ccccc5c(=O)[nH]4)c(Cl)c3)c2cc1N
> 5 µg/mL | – | CCOc1cc2ncc(C#N)c(Nc3ccc(Cn4ccnc4)c(Cl)c3)c2cc1[N+](=O)[O-]
> 5 µg/mL | – | CCOc1cc2ncc(C#N)c(Nc3ccc(Cn4ccnc4)c(Cl)c3)c2cc1N
